The text below walks through data of PMC10135378, “Synthesis of Novel N-Heterocyclic Carbene-Ruthenium (II) Complexes, “Precious” Tools with Antibacterial, Anticancer and Antioxidant Properties” (Antibiotics, 2023).

One assay deals with MDA-MB-231 cells. In words: TUNEL assay, apoptosis. The format is cell-based, human. The following applies: complexes at their IC50 values, 24 h. The method, then:
Thus, using the TUNEL assay we determined whether the Ru-NHC complexes RANHC-V and -VI were able to trigger apoptosis in the MDA-MB-231 cells. The latter were first exposed to the Ru complexes, used at their IC50 values for 24 h, and then subjected to the rTdT enzyme, as indicated in the experimental section.
A TUNEL assay was used for cells apoptosis detection, following the manufacturer’s protocols (CF™488A TUNEL Assay Apoptosis Detection Kit, Biotium, Hayward, CA, USA), with some changes. Briefly, cells were seeded and then processed, as described. DAPI (0.2 μg/mL, Sigma Aldrich, Milan, Italy) staining was adopted for nuclei. A fluorescence microscope (Leica DM 6000) was used for fluorescence detection (20x magnification). LAS-X software was used to acquire and process all the images that are representative of three different experiments.
Figure 5 TUNEL assay. MDA-MB-231 breast cancer cells were treated with Ru-NHC complexes RANHC-V and -VI at their IC50 values or with the vehicle (CTRL) for 24 h. Then, cells were incubated with rTdT enzyme and then observed and imaged under an inverted fluorescence microscope at 20× magnification (see Materials and Methods section). Panels (A): DAPI (λex/λem = 350/460 nm); Panels (B): CF^TM488A (λex/λem = 490/515 nm); Panels (C): show the overlay. Fields are representative of three independent experiments.

The next assay has as its target T1, human topoisomerase I (Homo sapiens, UniProt P11387).
T1 construct: purchased TopoGEN, Port Orange, FL, USA
T1 sequence (P11387 1-765): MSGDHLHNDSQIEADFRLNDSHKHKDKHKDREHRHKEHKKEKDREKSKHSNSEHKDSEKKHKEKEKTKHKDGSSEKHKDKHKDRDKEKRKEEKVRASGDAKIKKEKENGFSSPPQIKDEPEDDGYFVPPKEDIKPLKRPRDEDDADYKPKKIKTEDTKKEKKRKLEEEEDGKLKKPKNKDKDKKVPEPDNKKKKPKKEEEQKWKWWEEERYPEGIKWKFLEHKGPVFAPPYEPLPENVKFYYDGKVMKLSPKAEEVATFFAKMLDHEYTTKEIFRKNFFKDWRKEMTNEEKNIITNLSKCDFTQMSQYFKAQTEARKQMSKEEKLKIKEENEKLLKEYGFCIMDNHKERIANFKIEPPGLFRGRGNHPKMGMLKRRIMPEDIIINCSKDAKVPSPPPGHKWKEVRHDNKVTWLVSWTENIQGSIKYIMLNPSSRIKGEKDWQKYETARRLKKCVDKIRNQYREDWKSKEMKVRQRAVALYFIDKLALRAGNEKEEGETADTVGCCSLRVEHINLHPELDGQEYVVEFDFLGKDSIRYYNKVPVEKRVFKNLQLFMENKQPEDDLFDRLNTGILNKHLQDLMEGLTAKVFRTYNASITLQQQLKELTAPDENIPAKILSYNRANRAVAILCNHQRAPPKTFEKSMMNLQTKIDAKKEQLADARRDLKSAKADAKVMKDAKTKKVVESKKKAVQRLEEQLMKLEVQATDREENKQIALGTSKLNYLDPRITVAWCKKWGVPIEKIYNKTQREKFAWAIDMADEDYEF
Kind of assay: hTopo I relaxation assay. The following applies: 10 µM, 2 h at 37 °C, supercoiled pHOT1 substrate. In kind it is biochemical. The text has this: We performed the hTopo I relaxation assay using as a substrate the supercoiled plasmid pHOT1 and exposing the enzyme to our selected complexes or vehicle. […] Indeed, in lanes 4 and 5, corresponding to the enzymatic reactions in the presence of complexes RANHC-V or -VI, only the supercoiled DNA was present, noticeable as a single band in the lower portion of the agarose gel. Contrarily, in the CTRL (vehicle) reaction (Figure 3, lane 3), multiple bands related to the relaxed DNA products were detected.
hTopoI relaxation assays were done using the supercoiled pHOT1 as substrate, with the recombinant hTopoI (TopoGEN, Port Orange, FL, USA) and compounds RANHC-V and -VI or DMSO (CTRL) following the manufacturer’s protocol (TopoGEN, Port Orange, FL, USA), with some changes.
Figure 3 Human topoisomerase I […] assay. hTopo I was incubated with the vehicle alone (CTRL) or with the tested complexes RANHC-V and -VI at 10 µM for 2 h at 37 °C, using the supercoiled DNA pHOT1 as substrate. 1, relaxed DNA marker; 2, pHOT1; 3, CTRL (DMSO); 4 and 5, Ru-NHC complexes RANHC-V and -VI (10 µM), respectively. The image is representative of three separate experiments.

As for `COC(Cn1[c](=[Ru]([Cl])[Cl])n(C)c2ccccc21)c1ccccc1.Cc1ccc(C(C)C)cc1` (stereo not shown) [RANHC-VI], the “apoptosis (TUNEL)” value in the assay with MDA-MB-231 cells is “TUNEL-positive”. For the same compound, the “inhibition of hTopo I activity” value on human topoisomerase I is given as “totally inhibit”.

Regarding `COC(Cn1c(Cl)c(Cl)n(C)[c]1=[Ru]([Cl])[Cl])c1ccccc1.Cc1ccc(C(C)C)cc1` (stereo not shown) [RANHC-V], the “apoptosis (TUNEL)” value in the assay with MDA-MB-231 cells is listed as “TUNEL-positive”. Also, the “inhibition of hTopo I activity” value against human topoisomerase I is given as “totally inhibit”.
